{"source": "paper PMC3669624", "about": "(Molecular Cancer, 2013)", "key": {"UMUC-3-CX cells": {"tested_on": "UMUC-3-CX cells", "test": "Intracellular mitomycin C accumulation (flow cytometry)", "format": "cell-based, human", "conditions": "1 day celecoxib then 1 day MMC and celecoxib", "description": "(§1) After incubation, the cell medium was removed and trypsin/EDTA was used to detach the cells from the plates. Cells were harvested, washed twice in ice-cold PBS (pH 7.4), and placed on ice (<1 hour) until analysis. Analysis was performed using a 530/30 filter (FL1-H [height of fluorescence intensity]). Fluorescence measurements of individual cells were done with a Becton Dickinson FACScan equipped with an […] argon laser. Analysis was gated to include single cells, based on forward and side light scatter, and was based on the acquisition of data from 10,000 cells."}, "UMUC-3 cells": {"tested_on": "UMUC-3 cells", "test": "Intracellular mitomycin C accumulation (flow cytometry)", "format": "cell-based, human", "conditions": "UMUC-3, 1 day celecoxib then 1 day MMC and celecoxib", "description": "as §1"}, "5637 si-CX": {"tested_on": "5637 si-CX", "test": "Cell anti-proliferative effect (MTT test)", "format": "cell-based", "conditions": "Homo sapiens, 48 h, read-out: EC50 antiproliferative effect", "description": "UMUC-3, 5637, TCC sup cells and J82 (ATCC, Manassas, VA, USA), derived from human transitional cell carcinoma of the bladder, were routinely cultured in MEM supplemented with 10% fetal bovine serum, 2 mM glutamine, 100 U/mL penicillin, 100 μg/mL streptomycin, 1X NEAA and 1 mM sodium pyruvate. All components were purchased form Invitrogen Corportion (Cergy Pontoise, France), in a humidified incubator at 37°C with a 5% CO2 atmosphere. Caco-2 (IRCCS “S. De Bellis”, Castellana Grotte, Italy), MDCK-MDR1, MDCK-MRP1 (gift of Prof. P. Borst, NKI-AVL Institute, Amsterdam, Netherlands) and MDCK-BCRP cells (gift of Dr. A. Schinkel, NKI-AVL Institute, Amsterdam, Netherlands) were grown in DMEM medium with 10% heat-inactivated fetal calf serum, 100 U/mL penicillin, 100 μg/mL streptomycin and 2 mM L-glutamine (Invitrogen) in a humidified incubator at 37°C with a 5% CO2 atmosphere. […]\nAfterwords, 10 μl of 3-[4,5-dimethylthiazol-2-yl]-2,5-diphenyltetrazoliumbromide (MTT) freshly prepared solution (5 mg/ml in PBS) (Sigma) was added in each well, and the plate was incubated in a humidified atmosphere 5% CO2 at 37° for 3–4 h. […] The optical density was measured at 570 nm and 650 nm wavelenghts using Victor3 (PerkinElmer, Waltham, MA, USA). The results are expressed as EC50 values, obtained from non-linear iterative curve fitting by Prism v.3.0, GraphPad software (GraphPad Software, Inc. San Diego, USA)."}, "TCC sup": {"tested_on": "TCC sup", "test": "Cell anti-proliferative effect (MTT test)", "format": "cell-based", "conditions": "Homo sapiens, 48 h, read-out: EC50 antiproliferative effect", "description": "(§2) UMUC-3, 5637, TCC sup cells and J82 (ATCC, Manassas, VA, USA), derived from human transitional cell carcinoma of the bladder, were routinely cultured in MEM supplemented with 10% fetal bovine serum, 2 mM glutamine, 100 U/mL penicillin, 100 μg/mL streptomycin, 1X NEAA and 1 mM sodium pyruvate. All components were purchased form Invitrogen Corportion (Cergy Pontoise, France), in a humidified incubator at 37°C with a 5% CO2 atmosphere. Caco-2 (IRCCS “S. De Bellis”, Castellana Grotte, Italy), MDCK-MDR1, MDCK-MRP1 (gift of Prof. P. Borst, NKI-AVL Institute, Amsterdam, Netherlands) and MDCK-BCRP cells (gift of Dr. A. Schinkel, NKI-AVL Institute, Amsterdam, Netherlands) were grown in DMEM medium with 10% heat-inactivated fetal calf serum, 100 U/mL penicillin, 100 μg/mL streptomycin and 2 mM L-glutamine (Invitrogen) in a humidified incubator at 37°C with a 5% CO2 atmosphere. The cells were trypsinized twice a week with trypsin/ethylenediaminetetraacetic acid (EDTA) (0.05%/0.02%) and the medium was changed twice a week.\n(§3) Afterwords, 10 μl of 3-[4,5-dimethylthiazol-2-yl]-2,5-diphenyltetrazoliumbromide (MTT) freshly prepared solution (5 mg/ml in PBS) (Sigma) was added in each well, and the plate was incubated in a humidified atmosphere 5% CO2 at 37° for 3–4 h. MTT solution was removed and 200 μL of EtOH/DMSO (1:1) was added to each well to dissolve the blue formazan solid crystals. The optical density was measured at 570 nm and 650 nm wavelenghts using Victor3 (PerkinElmer, Waltham, MA, USA). The results are expressed as EC50 values, obtained from non-linear iterative curve fitting by Prism v.3.0, GraphPad software (GraphPad Software, Inc. San Diego, USA)."}, "5637": {"tested_on": "5637", "test": "Cell anti-proliferative effect (MTT test)", "format": "cell-based", "conditions": "Homo sapiens, 48 h, read-out: EC50 antiproliferative effect", "description": "as §2, §3"}, "UMUC3": {"tested_on": "UMUC3", "test": "Cell anti-proliferative effect (MTT test)", "format": "cell-based", "conditions": "Homo sapiens, read-out: EC50 antiproliferative effect", "description": "as §2, §3"}, "J82": {"tested_on": "J82", "test": "Cell anti-proliferative effect (MTT test)", "format": "cell-based", "conditions": "Homo sapiens, read-out: EC50 antiproliferative effect", "description": "as §2, §3"}, "UMUC-3- CX": {"tested_on": "UMUC-3- CX", "test": "Cell anti-proliferative effect (MTT test)", "format": "cell-based, human", "conditions": "for EC50: Homo sapiens, read-out: EC50 antiproliferative effect", "description": "as §2\nThe pSG5-COX-2 plasmid, which contains a full-length human COX-2 cDNA in the pSG expression vector [23], was used for COX-2 transfection. The plasmid DNA was introduced into UMUC-3 cells using Lipofectamine LTX (Invitrogen). Briefly, 2.5 μg of plasmid DNA and 6.25 μl of Lipofectamine LTX were combined in 500 μl of OpTI-MEM*I reduced serum medium (Invitrogen) and allowed to stand at room temperature for 30 minutes. UMUC-3 cells were plated at 1X105 cells/well in six-well plates. After overnight attachment, the Lipofectamine mixture was applied to cells. After 5 hours of transfection, the medium was removed and complete medium was added. After 48 hours, geneticin G418 (Invitrogen) was added to cells at a concentration of […]. Cell lines were obtained from individual colonies using cloning cylinders. UMUC-3-CX overexpressing cells were obtained and were continuously cultured in complete medium with the addition of 800 μg/ml G418.\nas §3"}, "BCRP": {"molecular_target": "T1, BCRP (Homo sapiens, UniProt Q9UNQ0)", "T1 sequence (Q9UNQ0 1-655)": "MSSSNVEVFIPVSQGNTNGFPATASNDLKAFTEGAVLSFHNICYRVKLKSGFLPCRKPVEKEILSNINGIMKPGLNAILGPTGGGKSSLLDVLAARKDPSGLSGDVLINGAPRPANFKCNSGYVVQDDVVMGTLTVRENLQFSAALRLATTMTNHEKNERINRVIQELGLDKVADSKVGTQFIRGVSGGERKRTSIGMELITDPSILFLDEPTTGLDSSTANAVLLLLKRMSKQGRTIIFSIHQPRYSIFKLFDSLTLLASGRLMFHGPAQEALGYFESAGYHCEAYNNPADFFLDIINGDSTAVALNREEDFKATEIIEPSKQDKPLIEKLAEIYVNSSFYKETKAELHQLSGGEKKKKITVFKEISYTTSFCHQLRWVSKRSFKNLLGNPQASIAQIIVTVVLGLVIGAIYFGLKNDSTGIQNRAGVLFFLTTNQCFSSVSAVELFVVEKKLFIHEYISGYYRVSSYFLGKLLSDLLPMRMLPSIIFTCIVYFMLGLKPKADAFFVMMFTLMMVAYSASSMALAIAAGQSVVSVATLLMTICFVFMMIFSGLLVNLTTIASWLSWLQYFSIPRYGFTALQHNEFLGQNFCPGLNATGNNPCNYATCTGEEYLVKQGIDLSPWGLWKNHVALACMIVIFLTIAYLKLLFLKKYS", "test": "cell-based", "protocol": "(§4) The method was adapted from Eneroth et al. [27] and Korjamo et al. [28] with minor modifications. Briefly, each cell line was seeded into a black Cultureplate (PerkinElmer) 96/wells plate with 100 μl medium and allowed to become confluent overnight. Test compounds were solubilized in 100 μl of culture medium and added. […] In treated wells the increase of fluorescence as compared to basal level was measured. The half maximal effective concentration (EC50) values were determined by fitting the fluorescence increase percentage versus log[dose]"}, "Caco-2 cells": {"tested_on": "Caco-2 cells", "test": "Cell ATP availability assay", "format": "cell-based", "protocol": "Caco-2 cells were seeded into 96-well microplate in 100 μL of complete medium at a density 2×10^4 cells/well. The plate was incubated O/N in a humidified atmosphere (5% CO2 at 37°C). The medium was removed and 100 μL of complete medium were added, in the presence or absence of different concentrations of test compounds. The plate was again incubated for 2 h in a humidified atmosphere. Then, 50 μl of mammalian cell lysis solution were added to all wells and the plate stirred for 5 min in an orbital shaker. In all wells, 50 μl of substrate solution were added, and the plate stirred for 5 min as above reported. The plate was dark adapted for 10 min and the luminescence measured in Victor3 (PerkinElmer) [26]."}, "P-gp": {"molecular_target": "P-gp (Homo sapiens, UniProt P08183)", "sequence (P08183 whole entry)": "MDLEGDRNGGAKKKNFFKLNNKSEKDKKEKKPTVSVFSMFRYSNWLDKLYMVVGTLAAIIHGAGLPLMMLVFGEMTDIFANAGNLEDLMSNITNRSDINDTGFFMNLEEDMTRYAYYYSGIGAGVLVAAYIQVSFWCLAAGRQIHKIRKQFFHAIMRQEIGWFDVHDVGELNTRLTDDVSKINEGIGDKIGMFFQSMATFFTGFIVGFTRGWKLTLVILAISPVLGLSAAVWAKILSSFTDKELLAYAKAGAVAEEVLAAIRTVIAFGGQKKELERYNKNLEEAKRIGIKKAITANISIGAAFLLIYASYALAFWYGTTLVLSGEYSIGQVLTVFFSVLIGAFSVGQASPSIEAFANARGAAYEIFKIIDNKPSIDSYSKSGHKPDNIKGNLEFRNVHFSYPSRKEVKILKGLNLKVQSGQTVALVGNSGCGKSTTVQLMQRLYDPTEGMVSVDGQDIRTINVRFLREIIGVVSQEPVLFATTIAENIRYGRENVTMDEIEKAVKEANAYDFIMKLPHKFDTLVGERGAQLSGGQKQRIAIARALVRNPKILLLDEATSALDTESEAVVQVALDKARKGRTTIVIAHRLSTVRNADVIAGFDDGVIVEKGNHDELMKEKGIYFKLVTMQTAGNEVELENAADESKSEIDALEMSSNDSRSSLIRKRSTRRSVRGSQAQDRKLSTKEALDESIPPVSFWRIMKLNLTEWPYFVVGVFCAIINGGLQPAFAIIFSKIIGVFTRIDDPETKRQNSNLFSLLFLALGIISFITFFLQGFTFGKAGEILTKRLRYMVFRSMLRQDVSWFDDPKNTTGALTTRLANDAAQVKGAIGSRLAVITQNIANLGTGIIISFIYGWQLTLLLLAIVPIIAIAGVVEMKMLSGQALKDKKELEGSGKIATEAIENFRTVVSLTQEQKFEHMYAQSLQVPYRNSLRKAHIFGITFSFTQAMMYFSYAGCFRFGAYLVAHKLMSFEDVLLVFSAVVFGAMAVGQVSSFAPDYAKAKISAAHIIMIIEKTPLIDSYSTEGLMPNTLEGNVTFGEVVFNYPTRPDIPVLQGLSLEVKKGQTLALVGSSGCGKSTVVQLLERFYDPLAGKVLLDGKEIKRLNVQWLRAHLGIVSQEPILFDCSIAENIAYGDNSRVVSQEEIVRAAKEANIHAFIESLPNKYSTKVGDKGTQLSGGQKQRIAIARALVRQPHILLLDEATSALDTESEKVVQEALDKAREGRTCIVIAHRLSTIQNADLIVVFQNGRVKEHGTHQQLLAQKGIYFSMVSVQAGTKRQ", "test": "Drug transport experiment, Caco-2 monolayer apparent permeability", "format": "in vitro ADME"}, "MRP1": {"molecular_target": "MRP1 (Homo sapiens, UniProt P33527)", "sequence (P33527 whole entry)": "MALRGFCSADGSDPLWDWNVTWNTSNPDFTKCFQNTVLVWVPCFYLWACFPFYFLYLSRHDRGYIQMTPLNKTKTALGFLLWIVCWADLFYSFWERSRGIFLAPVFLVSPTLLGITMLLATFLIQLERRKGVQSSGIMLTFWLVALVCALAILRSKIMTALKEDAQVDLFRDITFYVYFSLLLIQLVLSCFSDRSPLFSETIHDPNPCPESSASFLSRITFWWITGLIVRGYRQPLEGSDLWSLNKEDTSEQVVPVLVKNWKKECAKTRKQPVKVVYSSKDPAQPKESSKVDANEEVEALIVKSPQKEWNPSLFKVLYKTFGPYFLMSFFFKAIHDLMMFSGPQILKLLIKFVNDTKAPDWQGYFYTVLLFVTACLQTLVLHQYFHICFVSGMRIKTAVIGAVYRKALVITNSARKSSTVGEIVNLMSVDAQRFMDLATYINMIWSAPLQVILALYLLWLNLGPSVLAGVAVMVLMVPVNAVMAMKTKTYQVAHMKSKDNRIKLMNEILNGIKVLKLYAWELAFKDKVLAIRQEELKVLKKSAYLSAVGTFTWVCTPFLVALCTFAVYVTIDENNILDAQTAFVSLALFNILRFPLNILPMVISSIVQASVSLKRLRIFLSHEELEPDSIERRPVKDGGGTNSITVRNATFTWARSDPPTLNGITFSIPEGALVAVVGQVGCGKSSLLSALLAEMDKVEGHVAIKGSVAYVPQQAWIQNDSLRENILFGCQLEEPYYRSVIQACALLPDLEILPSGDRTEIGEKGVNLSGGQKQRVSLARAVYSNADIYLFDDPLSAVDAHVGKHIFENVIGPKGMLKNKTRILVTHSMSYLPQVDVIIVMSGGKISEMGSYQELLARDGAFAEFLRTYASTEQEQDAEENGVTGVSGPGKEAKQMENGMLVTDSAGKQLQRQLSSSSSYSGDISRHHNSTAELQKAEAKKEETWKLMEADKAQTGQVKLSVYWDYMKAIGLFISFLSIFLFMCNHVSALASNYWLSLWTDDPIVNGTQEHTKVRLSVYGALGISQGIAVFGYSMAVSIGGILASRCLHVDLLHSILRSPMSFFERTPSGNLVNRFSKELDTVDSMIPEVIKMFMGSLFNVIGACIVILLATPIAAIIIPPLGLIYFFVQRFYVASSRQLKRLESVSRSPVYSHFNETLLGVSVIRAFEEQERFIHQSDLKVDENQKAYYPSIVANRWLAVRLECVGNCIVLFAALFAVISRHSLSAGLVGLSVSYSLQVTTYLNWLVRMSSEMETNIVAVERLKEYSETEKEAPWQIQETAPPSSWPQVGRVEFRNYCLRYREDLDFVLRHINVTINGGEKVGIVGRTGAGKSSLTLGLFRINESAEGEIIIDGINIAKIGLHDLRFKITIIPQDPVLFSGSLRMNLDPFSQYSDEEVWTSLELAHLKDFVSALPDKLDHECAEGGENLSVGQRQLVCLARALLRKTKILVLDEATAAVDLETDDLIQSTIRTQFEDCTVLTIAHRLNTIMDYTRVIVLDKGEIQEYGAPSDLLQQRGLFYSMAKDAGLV", "test": "cell-based", "protocol": "as §4"}}, "note": "Like-named read-outs stand apart in the source and are kept apart here.", "data": [{"smiles": "Cc1ccc(-c2cc(C(F)(F)F)nn2-c2ccc(S(N)(=O)=O)cc2)cc1", "note": "[Celecoxib, celecoxib]", "values": [{"measurement": "Effect on MMC intracellular accumulation", "setting": "UMUC-3-CX cells", "value": "increase of intracellular MMC concentration"}, {"measurement": "Effect on MMC intracellular accumulation", "setting": "UMUC-3 cells", "value": "not seen"}, {"measurement": "EC50", "setting": "5637 si-CX", "value": "> 50", "unit": "µM"}, {"measurement": "EC50", "setting": "TCC sup; TCC-SUP", "value": "15.7 ± 0.5", "unit": "µM"}, {"measurement": "EC50", "setting": "5637", "value": "> 50", "unit": "µM"}, {"measurement": "EC50", "setting": "UMUC3; UMUC3, 48 h", "value": "14.2 ± 0.7", "unit": "µM"}, {"measurement": "EC50", "setting": "J82; J82, 48 h", "value": "11.6 ± 0.31", "unit": "µM"}, {"measurement": "EC50", "setting": "UMUC-3- CX; UMUC3, 48 h", "value": "16.3 ± 0.8", "unit": "µM"}, {"measurement": "EC50", "setting": "BCRP", "value": "24.1 ± 1.2", "unit": "µM"}, {"measurement": "ATP cell depletion", "setting": "Caco-2 cells", "value": "decreased ATP levels in a time- and dose-dependent fashion"}, {"measurement": "Classification of P-gp interaction (Polli's classification)", "setting": "P-gp; from drug transport, substrate transport inhibition and ATP cell depletion assays combined", "value": "P-gp unambiguous substrate"}, {"measurement": "Papp A→B at 120 min, 100 µM", "setting": "P-gp; human, Caco-2 monolayer, apical-basolateral flux, 120 min", "value": 13.7, "unit": "×10⁻⁶ cm/s"}, {"measurement": "Papp B→A at 120 min, 100 µM", "setting": "P-gp; human, Caco-2 monolayer, basolateral-apical flux, 120 min", "value": 103, "unit": "×10⁻⁶ cm/s"}, {"measurement": "EC50", "setting": "MRP1", "value": "10.1 ± 0.5", "unit": "µM"}]}, {"smiles": "CO[C@@]12[C@H](COC(N)=O)C3=C(C(=O)C(C)=C(N)C3=O)N1C[C@@H]1N[C@@H]12", "note": "[Mitomycin C]", "values": [{"measurement": "EC50", "setting": "5637 si-CX; 5637 si-CX, compound alone", "value": "0.62 ± 0.05", "unit": "µM"}, {"measurement": "EC50", "setting": "TCC sup; TCC sup, compound alone", "value": "0.83 ± 0.07", "unit": "µM"}, {"measurement": "EC50", "setting": "5637; 5637, compound alone", "value": "0.93 ± 0.04", "unit": "µM"}, {"measurement": "EC50", "setting": "UMUC3; UMUC3, compound alone, 48 h", "value": "1.69 ± 0.09", "unit": "µM"}, {"measurement": "EC50", "setting": "J82; J82, compound alone, 48 h", "value": "0.64 ± 0.09", "unit": "µM"}, {"measurement": "EC50", "setting": "UMUC-3- CX; UMUC3, UMUC-3-CX, compound alone, 48 h", "value": "13 ± 1", "unit": "µM"}, {"measurement": "Fold improvement of MMC anti-proliferative activity by co-administration of celecoxib compared to MMC alone", "setting": "UMUC-3- CX; UMUC-3-CX, celecoxib 1 μM, 5 μM and 10 μM, 48 h, listed as MMC", "value": "2–3 fold"}, {"measurement": "Anti-proliferative effect of MMC alone, fold greater in UMUC-3 than in UMUC-3-CX", "setting": "UMUC-3- CX; UMUC-3 versus UMUC-3-CX, 48 h", "value": 8, "unit": "fold"}]}]}
